Source: patent US10350228B2, “Treatment of sickle cell disease and inflammatory conditions” (Seattle Genetics, Inc., priority 2012, dated 2019)
Read-outs that look alike come from different tables or passages of the source.

Assays:
[1] = system: antibody core fucosylation; assay: Inhibition of antibody core fucosylation by fucose analogs; assay type: cell-based
Text: Methods of determining whether a fucose analog is capable of having an effect on antibody core fucosylation is provided in WO 2012/019165.

NF-κB phospho-p65 = assay: Western blot of NF-κB phospho-p65 in liver nuclear extracts of sickle cell mice; assay type: in vivo, NY1DD sickle cell mice; conditions: heme-treated mice
Procedure: NY1DD sickle cell mice were given plain water or 20 or 100 mM 2-fluorofucose in their drinking water ad libitum for 7 days. The treatment and control group had four mice per treatment group. On day 7, the mice were sacrificed with CO2. An EDTA blood sample was collected from the heart and the liver was removed and frozen in liquid nitrogen. Total white blood cell counts and differentials were performed by manual counting using a hemocytometer and Wright-stained blood smears, respectively. Nuclear extracts were prepared from nuclei isolated from liver homogenates. Western blots of the nuclear extracts were immunostained with antibodies to NF-κB phospho-p65 a marker of NF-κB activation.

[2] = Table 2, 50 μM analog, read-out: Inhibition at 50 μM
[3] = Table 1, 50 μM analog, read-out: Inhibition at 50 μM

2-deoxy-2-fluorofucose diacetate was tested, and the “inhibition at 50 µM” value ([1]; Table 2, 50 μM analog) was >80% and the “Inhibition at 1 mM” value ([1]; Table 2, 1 mM analog) was >80%.
2-deoxy-2-fluorofucose peracetate was tested, and the “inhibition at 50 µM” value ([1]; Table 2, 50 μM analog) was >80% and the “Inhibition at 1 mM” value ([1]; Table 2, 1 mM analog) was >80%.
5-Benzyloxy fucose peracetate was tested, and the “inhibition at 50 µM” value ([1]; Table 2, 50 μM analog) was 0% and the “Inhibition at 1 mM” value ([1]; Table 2, 1 mM analog) was 75%.
With `CC(=O)OC1C(C)OC(F)C(F)C1OC(C)=O` (stereo not shown) [1,2-difluoro-1,2-didexoy fucose peracetate] the “inhibition at 50 µM” value ([1]; Table 2, 50 μM analog) was >80% and the “Inhibition at 1 mM” value ([1]; Table 2, 1 mM analog) was >80%.
For `C#C[C@H](OC(C)=O)[C@H]1OC(OC)[C@@H](OC(C)=O)[C@@H]1OC(C)=O` (stereo partly shown) [1-methyl-2,3,4-triacetyl alkynyl fucose], the “inhibition at 50 µM” value ([1]; Table 1, 50 μM analog) was 68% and the “Inhibition at 1 mM” value ([1]; Table 1, 1 mM analog) was >80%.
`CC(=O)OC1O[C@@H](C)[C@@H](OC(C)=O)[C@@H](OC(C)=O)C1(F)F` (stereo partly drawn) [2-deoxy-2,2-difluorofucopyranose triacetate (beta)] was tested, and the “inhibition at 50 µM” value ([1]; Table 2, 50 μM analog) was 0% and the “Inhibition at 1 mM” value ([1]; Table 2, 1 mM analog) was 75%.
For `CC(=O)OC1O[C@@H](C)[C@@H](OC(C)=O)[C@@H](OC(C)=O)C1(F)F` (stereo partly shown) [2-deoxy-2,2-difluorofucopyranose triacetate], the inhibition at 50 µM [1, 2] was 0% and the inhibition at 1000 µM ([1]; Table 2, 1 mM analog) was 64%.
Work on `CC(=O)OC(C#N)[C@H]1OC(OC(C)=O)[C@@H](OC(C)=O)[C@@H]1OC(C)=O` (stereo partly shown) [5-cyanoarabinofuranose tetraacetate] yielded an inhibition at 50 µM [1, 3] of 5 to 10%.
With `CC(=O)OC1OC(C#N)[C@@H](OC(C)=O)[C@@H](OC(C)=O)[C@@H]1OC(C)=O` (stereo partly shown) [5-cyanoarabinopyranose tetraacetate] the inhibition at 50 µM [1, 3] was 20%.
Compound `CC(=O)OC1O[C@@H]([C@]2(C)CO2)[C@@H](OC(C)=O)[C@@H](OC(C)=O)[C@@H]1OC(C)=O` (stereo partly drawn) [5-methyloxiran-arabinose tetraacetate, (3S,4R,5S,6R)-6-((S)-2-methyloxiran-2-yl)-tetrahydro-2H-pyran-2,3,4,5-tetrayl tetraacetate] has an inhibition at 50 µM [1, 3] of ~0% and an inhibition at 1000 µM ([1]; Table 1, 1 mM analog) of 35 to 40%.
For `CC#CC(OC(C)=O)[C@@H](OC(C)=O)[C@@H](OC(C)=O)[C@@H](C=O)OC(C)=O` (stereo partly shown) [5-propynyl fucose tetraacetate, 5-propynylarabinose tetraacetate], the inhibition at 50 µM [1, 3] was 50% and the inhibition at 1000 µM ([1]; Table 1, 1 mM analog) was > 80%.
With `C=CC1OC(OC(C)=O)C(OC(C)=O)C(OC(C)=O)C1OC(C)=O` (stereo not shown) [5-vinyl fucose tetraacetate, 5-ethylenylarabinose tetraacetate] the “inhibition at 50 µM” value ([1]; Table 1, 50 μM analog) was ~0% and the “Inhibition at 1 mM” value ([1]; Table 1, 1 mM analog) was ~4%.
`CC(=O)O[C@H]([C@H](OC(C)=O)[C@@H](OC(C)=O)C(F)F)[C@@H](C=O)OC(C)=O` [6,6-difluorofucose tetraacetate] was tested, and the inhibition at 50 µM [1, 2] was > 80% and the inhibition at 1000 µM ([1]; Table 2, 1 mM analog) was > 80%.
`CC(=O)O[C@H]([C@H](OC(C)=O)[C@H](CBr)OC(C)=O)[C@@H](C=O)OC(C)=O` [6-bromo-fucose tetraacetate, 6-bromofucose tetraacetate] gave an inhibition at 50 µM [1, 3] of 50% and an inhibition at 1000 µM ([1]; Table 1, 1 mM analog) of 80%.
Work on `CC(=O)O[C@H]([C@H](OC(C)=O)[C@H](CCl)OC(C)=O)[C@@H](C=O)OC(C)=O` [6-chloro-fucose tetraacetate, 6-chlorofucose tetraacetate] yielded an inhibition at 50 µM [1, 3] of 20% and an inhibition at 1000 µM ([1]; Table 1, 1 mM analog) of 20 to 30%.
With `CC(=O)O[C@H]([C@H](OC(C)=O)[C@H](CC#N)OC(C)=O)[C@@H](C=O)OC(C)=O` [6-cyano fucose tetraacetate, 6-cyanofucose tetraacetate] the inhibition at 50 µM [1, 3] was 30% and the inhibition at 1000 µM ([1]; Table 1, 1 mM analog) was > 80%.
`CC(=O)O[C@H]([C@H](OC(C)=O)[C@H](CI)OC(C)=O)[C@@H](C=O)OC(C)=O` [6-iodo-fucose tetraacetate, 6-iodofucose tetraacetate] gave an inhibition at 50 µM [1, 3] of 3% and an inhibition at 1000 µM ([1]; Table 1, 1 mM analog) of 30%.
`CC(=O)OC1CC(OC(C)=O)C(OC(C)=O)C(C)O1` (stereo not shown) [6-methyl-tetrahydro-2H-pyran-2,4,5-triyl triacetate] showed an inhibition at 50 µM [1, 2] of 0% and an inhibition at 1000 µM ([1]; Table 2, 1 mM analog) of 36%.
In the case of `C#CC1OC(OC(=O)C(C)(C)C)C(OC(=O)C(C)(C)C)C(OC(=O)C(C)(C)C)C1O` (stereo not shown) [Alkynyl fucose 1,2,3-(trimethylacetate), 5-ethynylarabinose 1,2,3-(trimethylacetate)], the “inhibition at 50 µM” value ([1]; Table 1, 50 μM analog) is reported as ~0%.
For `C#CC1OC(OC(=O)C(C)(C)C)C(O)C(OC(=O)C(C)(C)C)C1O` (stereo not shown) [Alkynyl fucose di(trimethylacetate), 5-ethynylarabinose 1,3-(trimethylacetate)], the “inhibition at 50 µM” value ([1]; Table 1, 50 μM analog) was >80%.
`C#CC(OC(C)=O)[C@@H](OC(C)=O)[C@@H](OC(C)=O)[C@@H](C=O)OC(C)=O` (stereo partly shown) [Alkynyl fucose peracetate, 5-ethynylarabinose tetraacetate] was tested, and the inhibition at 50 µM [1, 3] was > 80% and the inhibition at 1000 µM ([1]; Table 1, 1 mM analog) was > 80%.
With `C#C[C@@H]1OC(OC(=O)C(C)C)[C@@H](OC(=O)C(C)C)[C@H](OC(=O)C(C)C)[C@@H]1OC(=O)C(C)C` (stereo partly shown) [Alkynyl fucose perisobutanoate] the “inhibition at 50 µM” value ([1]; Table 1, 50 μM analog) was >80% and the “Inhibition at 1 mM” value ([1]; Table 1, 1 mM analog) was >80%.
`C#C[C@H]1OC(OC(=O)c2ccncc2)[C@@H](OC(=O)c2ccncc2)[C@H](OC(=O)c2ccncc2)[C@@H]1OC(=O)c1ccncc1` (stereo partly shown) [Alkynyl fucose perisonicotinate] was tested, and the “inhibition at 50 µM” value ([1]; Table 1, 50 μM analog) was >80% and the “Inhibition at 1 mM” value ([1]; Table 1, 1 mM analog) was >80%.
For `C#CC1OC(OC(=O)c2cccnc2)C(OC(=O)c2cccnc2)C(OC(=O)c2cccnc2)C1OC(=O)c1cccnc1` (stereo not shown) [Alkynyl fucose pernicotinate], the “inhibition at 50 µM” value ([1]; Table 1, 50 μM analog) was >80% and the “Inhibition at 1 mM” value ([1]; Table 1, 1 mM analog) was >80%.
In the case of `C#CC(OC(=O)CCCCC)[C@@H](OC(=O)CCCCC)[C@@H](OC(=O)CCCCC)[C@@H](C=O)OC(=O)CCCCC` (stereo partly shown) [Alkynyl fucose tetra-n-hexanoate, 5-ethynylarabinose tetrahexanoate], the inhibition at 50 µM [1, 3] is reported as > 80% and the inhibition at 1000 µM ([1]; Table 1, 1 mM analog) is reported as > 80%.
In the case of `C#C[C@@H]1OC(OC(=O)CC)[C@@H](OC(=O)CC)[C@H](OC(=O)CC)[C@@H]1OC(=O)CC` (stereo partly shown) [Alkynyl fucose tetrapropanonate, 5-ethynylarabinose tetrapropropanoate], the “inhibition at 50 µM” value ([1]; Table 1, 50 μM analog) is reported as >80% and the “Inhibition at 1 mM” value ([1]; Table 1, 1 mM analog) is reported as >80%.
`C#CC(O)[C@@H](O)[C@@H](O)[C@H](O)C=O` (stereo partly shown) [Alkynyl fucose, 5-ethynylarabinose] was tested, and the inhibition at 50 µM [1, 3] was > 80%.
Work on `C#CC[C@@H]1OC(OC(C)=O)[C@@H](OC(C)=O)[C@H](OC(C)=O)[C@@H]1OC(C)=O` (stereo partly drawn) [propargyl fucose tetraacetate, (3S,4R,5R,6S)-6-(prop-2-ynyl)-tetrahydro-2H-pyran-2,3,4,5-tetrayl tetraacetate] yielded an inhibition at 50 µM [1, 3] of ~10% and an inhibition at 1000 µM ([1]; Table 1, 1 mM analog) of 10 to 20%.
With hemin [heme, reference compound] the “Nuclear NF-κB phospho-p65 in liver” value (NF-κB phospho-p65) was “markedly decreased”.
